From PubChem BioAssay (NCI)
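Grown in 96-well plates, cells were treated for 48 hours with each compound at five concentrations. Insufficient inhibition: endpoint recorded as highest concentration tested. TGI: total growth inhibition.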

How the values were obtained:
Assay in all cases: NCI-60 cell line screen, 48 h
786-0 renal = system: 786-0 renal
A498 renal = system: A498 renal
A549 NSCLC = system: A549 NSCLC
ACHN renal = system: ACHN renal
BT-549 breast = system: BT-549 breast
CAKI-1 renal = system: CAKI-1 renal
CCRF-CEM leukemia = system: CCRF-CEM leukemia
COLO 205 colon = system: COLO 205 colon
DU-145 prostate = system: DU-145 prostate
EKVX NSCLC = system: EKVX NSCLC
HCT-116 colon = system: HCT-116 colon
HCT-15 colon = system: HCT-15 colon
HL-60(TB) leukemia = system: HL-60(TB) leukemia
HOP-62 NSCLC = system: HOP-62 NSCLC
HOP-92 NSCLC = system: HOP-92 NSCLC
HS 578T breast = system: HS 578T breast
HT29 colon = system: HT29 colon
IGROV1 ovarian = system: IGROV1 ovarian
K-562 leukemia = system: K-562 leukemia
KM12 colon = system: KM12 colon
LOX IMVI melanoma = system: LOX IMVI melanoma
M14 melanoma = system: M14 melanoma
MALME-3M melanoma = system: MALME-3M melanoma
MCF7 breast = system: MCF7 breast
MDA-MB-231 breast = system: MDA-MB-231 breast
MDA-MB-435 = system: MDA-MB-435
MDA-N = system: MDA-N
MOLT-4 leukemia = system: MOLT-4 leukemia
NCI-H226 lung = system: NCI-H226 lung
NCI-H23 lung = system: NCI-H23 lung
NCI-H460 lung = system: NCI-H460 lung
NCI-H522 lung = system: NCI-H522 lung
NCI/ADR-RES ovarian = system: NCI/ADR-RES ovarian
OVCAR-3 ovarian = system: OVCAR-3 ovarian
OVCAR-4 ovarian = system: OVCAR-4 ovarian
OVCAR-5 ovarian = system: OVCAR-5 ovarian
OVCAR-8 ovarian = system: OVCAR-8 ovarian
PC-3 prostate = system: PC-3 prostate
RPMI-8226 leukemia = system: RPMI-8226 leukemia
RXF 393 renal = system: RXF 393 renal
SF-268 CNS = system: SF-268 CNS
SF-295 CNS = system: SF-295 CNS
SF-539 CNS = system: SF-539 CNS
SK-MEL-2 melanoma = system: SK-MEL-2 melanoma
SK-MEL-28 melanoma = system: SK-MEL-28 melanoma
SK-MEL-5 melanoma = system: SK-MEL-5 melanoma
SK-OV-3 ovarian = system: SK-OV-3 ovarian
SN12C renal = system: SN12C renal
SNB-19 CNS = system: SNB-19 CNS
SNB-75 CNS = system: SNB-75 CNS
SR leukemia = system: SR leukemia
SW-620 colon = system: SW-620 colon
T-47D breast = system: T-47D breast
TK-10 renal = system: TK-10 renal
U251 CNS = system: U251 CNS
UACC-257 melanoma = system: UACC-257 melanoma
UACC-62 melanoma = system: UACC-62 melanoma
UO-31 renal = system: UO-31 renal

## C=C(C)COc1ccc2c(c1)CCC1C2CCC2(C)C(=O)/C(=N/O)CC12 (configuration not stated)
786-0 renal
  TGI: 13 µM
A498 renal
  TGI: 24.3 µM
A549 NSCLC
  TGI: 26.4 µM
ACHN renal
  TGI: 15.2 µM
BT-549 breast
  TGI: 21.2 µM
CAKI-1 renal
  TGI: 10.2 µM
CCRF-CEM leukemia
  TGI: 6.61 µM
COLO 205 colon
  TGI: 14.4 µM
DU-145 prostate
  TGI: 7.93 µM
EKVX NSCLC
  TGI: 9.32 µM
HCT-116 colon
  TGI: 3.08 µM
HCT-15 colon
  TGI: 7.52 µM
HL-60(TB) leukemia
  TGI: 5.92 µM
HOP-62 NSCLC
  TGI: 21.2 µM
HOP-92 NSCLC
  TGI: 10.4 µM
HS 578T breast
  TGI: 27.7 µM
HT29 colon
  TGI: 2.72 µM
IGROV1 ovarian
  TGI: 4.6 µM
K-562 leukemia
  TGI: 9.96 µM
KM12 colon
  TGI: 5.77 µM
LOX IMVI melanoma
  TGI: 13.9 µM
M14 melanoma
  TGI: 14.4 µM
MALME-3M melanoma
  TGI: 29.1 µM
MCF7 breast
  TGI: 10.5 µM
MDA-MB-231 breast
  TGI: 4.93 µM
MDA-MB-435
  TGI: 7.61 µM
MDA-N
  TGI: 14.7 µM
MOLT-4 leukemia
  TGI: 6.05 µM
NCI-H226 lung
  TGI: 26.6 µM
NCI-H23 lung
  TGI: 15.5 µM
NCI-H460 lung
  TGI: 3.14 µM
NCI-H522 lung
  TGI: 17.4 µM
NCI/ADR-RES ovarian
  TGI: 21.8 µM
OVCAR-3 ovarian
  TGI: 14.6 µM
OVCAR-4 ovarian
  TGI: 9.69 µM
OVCAR-5 ovarian
  TGI: 18.7 µM
OVCAR-8 ovarian
  TGI: 24.1 µM
PC-3 prostate
  TGI: 10.5 µM
RPMI-8226 leukemia
  TGI: 7.54 µM
RXF 393 renal
  TGI: 6.78 µM
SF-268 CNS
  TGI: 23.3 µM
SF-295 CNS
  TGI: 19.3 µM
SF-539 CNS
  TGI: 26.3 µM
SK-MEL-2 melanoma
  TGI: 14.1 µM
SK-MEL-28 melanoma
  TGI: 33.3 µM
SK-MEL-5 melanoma
  TGI: 21.1 µM
SK-OV-3 ovarian
  TGI: 22.4 µM
SN12C renal
  TGI: 14 µM
SNB-19 CNS
  TGI: 25.4 µM
SNB-75 CNS
  TGI: 11.9 µM
SR leukemia
  TGI: 4.14 µM
SW-620 colon
  TGI: 9.94 µM
T-47D breast
  TGI: 8.61 µM
TK-10 renal
  TGI: 5.58 µM
U251 CNS
  TGI: 16.3 µM
UACC-257 melanoma
  TGI: 23.5 µM
UACC-62 melanoma
  TGI: 28.5 µM
UO-31 renal
  TGI: 15.3 µM

## CC(C)=CCC/C(C)=C/Cc1c2c(c3oc(-c4ccc(O)c(O)c4)c(O)c(=O)c3c1O)C=CC(C)(C)O2
786-0 renal
  TGI: 7.92 µM
A498 renal
  TGI: 12.9 µM
A549 NSCLC
  TGI: 12.4 µM
ACHN renal
  TGI: 7.83 µM
BT-549 breast
  TGI: 15 µM
CAKI-1 renal
  TGI: 5.55 µM
CCRF-CEM leukemia
  TGI: 8.82 µM
COLO 205 colon
  TGI: 5.33 µM
DU-145 prostate
  TGI: 8.59 µM
HCT-116 colon
  TGI: 8.56 µM
HCT-15 colon
  TGI: 8.39 µM
HL-60(TB) leukemia
  TGI: 6.29 µM
HOP-62 NSCLC
  TGI: 10.7 µM
HS 578T breast
  TGI: 18.7 µM
HT29 colon
  TGI: 9.79 µM
IGROV1 ovarian
  TGI: 8.5 µM
K-562 leukemia
  TGI: 9.63 µM
KM12 colon
  TGI: 9.89 µM
M14 melanoma
  TGI: 9.42 µM
MALME-3M melanoma
  TGI: 4.01 µM
MCF7 breast
  TGI: 11.4 µM
MDA-MB-231 breast
  TGI: 14.5 µM
MDA-MB-435
  TGI: 12.6 µM
MDA-N
  TGI: 11.4 µM
MOLT-4 leukemia
  TGI: 8.98 µM
NCI-H226 lung
  TGI: 15.2 µM
NCI-H23 lung
  TGI: 11.6 µM
NCI-H460 lung
  TGI: 10.9 µM
NCI-H522 lung
  TGI: 2.9 µM
NCI/ADR-RES ovarian
  TGI: 11.7 µM
OVCAR-3 ovarian
  TGI: 6.34 µM
OVCAR-4 ovarian
  TGI: 9.5 µM
OVCAR-5 ovarian
  TGI: 15.1 µM
OVCAR-8 ovarian
  TGI: 7.92 µM
PC-3 prostate
  TGI: 12.5 µM
RPMI-8226 leukemia
  TGI: 9.93 µM
RXF 393 renal
  TGI: 18.6 µM
SF-268 CNS
  TGI: 10.7 µM
SF-295 CNS
  TGI: 13.4 µM
SF-539 CNS
  TGI: 7 µM
SK-MEL-2 melanoma
  TGI: 13.7 µM
SK-MEL-28 melanoma
  TGI: 10.8 µM
SK-MEL-5 melanoma
  TGI: 9.86 µM
SK-OV-3 ovarian
  TGI: 8.65 µM
SN12C renal
  TGI: 14.5 µM
SNB-19 CNS
  TGI: 12.5 µM
SNB-75 CNS
  TGI: 11.6 µM
SR leukemia
  TGI: 6.94 µM
T-47D breast
  TGI: 7.39 µM
TK-10 renal
  TGI: 11.2 µM
U251 CNS
  TGI: 10.7 µM
UACC-257 melanoma
  TGI: 11.2 µM
UACC-62 melanoma
  TGI: 12.4 µM
UO-31 renal
  TGI: 10.2 µM
